The source of these data is patent publication EP4714952A1, “COMPOUND AND USE THEREOF” (Autobio Group Co., Ltd., priority 2023, dated 2025).

Where two headings read alike, the source gives them in different places.

One data set has as its target CYP3A-M (Homo sapiens, UniProt P08684). The data set is described as follows: In vitro CYP inhibition in human liver microsomes, CYP3A-M.
In a further data set the target is CYP2C9 (Homo sapiens, UniProt P11712). Description: In vitro CYP inhibition in human liver microsomes, CYP2C9. A general note: Liver microsomes are vesicles of endoplasmic reticulum, rich in cytochrome P450 enzymes.
Sequence of CYP2C9 (P11712 whole entry): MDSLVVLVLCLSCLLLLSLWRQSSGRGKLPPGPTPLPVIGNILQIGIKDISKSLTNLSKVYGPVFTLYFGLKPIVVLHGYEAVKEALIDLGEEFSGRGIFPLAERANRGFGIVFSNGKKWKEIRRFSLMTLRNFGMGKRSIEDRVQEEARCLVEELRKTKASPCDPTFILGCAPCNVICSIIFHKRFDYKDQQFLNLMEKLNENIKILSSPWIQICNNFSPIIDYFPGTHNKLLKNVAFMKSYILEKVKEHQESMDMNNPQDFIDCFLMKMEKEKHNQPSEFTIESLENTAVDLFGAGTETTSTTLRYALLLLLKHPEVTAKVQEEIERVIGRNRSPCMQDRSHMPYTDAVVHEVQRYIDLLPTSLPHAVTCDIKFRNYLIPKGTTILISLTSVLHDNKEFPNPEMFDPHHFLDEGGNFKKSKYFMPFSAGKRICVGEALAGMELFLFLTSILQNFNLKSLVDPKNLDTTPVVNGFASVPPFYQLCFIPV
The target in another data set is CYP2C19 (Homo sapiens, UniProt P33261). Description: In vitro CYP inhibition in human liver microsomes, CYP2C19.
Sequence of CYP2C19 (P33261 whole entry): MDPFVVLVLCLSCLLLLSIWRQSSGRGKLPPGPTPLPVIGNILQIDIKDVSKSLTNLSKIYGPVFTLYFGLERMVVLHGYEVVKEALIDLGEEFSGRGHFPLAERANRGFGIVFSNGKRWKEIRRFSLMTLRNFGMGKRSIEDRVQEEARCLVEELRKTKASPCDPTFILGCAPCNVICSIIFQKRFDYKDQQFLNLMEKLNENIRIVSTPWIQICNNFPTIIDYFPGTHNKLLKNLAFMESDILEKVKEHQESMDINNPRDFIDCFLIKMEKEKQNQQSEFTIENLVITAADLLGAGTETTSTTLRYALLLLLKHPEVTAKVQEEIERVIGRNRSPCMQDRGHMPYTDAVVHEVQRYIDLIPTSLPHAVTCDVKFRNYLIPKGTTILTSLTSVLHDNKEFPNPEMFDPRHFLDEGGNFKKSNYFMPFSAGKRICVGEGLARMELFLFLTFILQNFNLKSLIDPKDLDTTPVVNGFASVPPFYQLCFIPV
The next data set deals with CYP1A2 (Homo sapiens, UniProt P05177). Description: In vitro CYP inhibition in human liver microsomes, CYP1A2.
Sequence of CYP1A2 (P05177 whole entry): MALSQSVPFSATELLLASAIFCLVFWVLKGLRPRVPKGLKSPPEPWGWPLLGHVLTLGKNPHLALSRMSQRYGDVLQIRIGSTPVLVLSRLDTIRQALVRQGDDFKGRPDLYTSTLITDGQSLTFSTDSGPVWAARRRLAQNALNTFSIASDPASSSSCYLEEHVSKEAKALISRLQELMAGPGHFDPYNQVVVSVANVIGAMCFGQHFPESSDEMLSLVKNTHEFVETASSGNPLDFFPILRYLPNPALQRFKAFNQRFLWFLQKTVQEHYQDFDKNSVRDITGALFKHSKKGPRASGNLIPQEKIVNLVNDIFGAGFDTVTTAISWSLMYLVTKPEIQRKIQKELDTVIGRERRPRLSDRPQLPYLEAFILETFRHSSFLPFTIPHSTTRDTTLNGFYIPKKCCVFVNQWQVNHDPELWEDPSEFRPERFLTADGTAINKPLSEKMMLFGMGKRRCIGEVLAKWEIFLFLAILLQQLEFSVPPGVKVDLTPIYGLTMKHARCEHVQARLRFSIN
Another data set concerns the target T1, PDE4B1 (Homo sapiens, UniProt Q07343).
T1 construct: purchased Sigma
The data set is described as follows: In vitro inhibitory effect on PDE4B1 enzyme (AMP-Glo assay). Type of data set: biochemical. On the procedure:
(§1) 1. Table 1 Main reagents and consumables for in vitro detection of inhibitory effect
(§2) 2. Preparation of experimental buffers Reaction buffer (5×): 50 mM Tris-HCl (buffer), 50 mM MgCl2, 0.5% BSA, 0.25% Tween-20, pH 7.4, stored at -20°C. 3. […] The starting concentration of the reference substance serial dilution was the Low control, and 1% DMSO-reaction buffer served as the High control. • 3) The enzyme was diluted to the desired concentration with 1× reaction buffer, and 4 µL of the diluted solution was transferred to the assay plate. After centrifugation, the 384-well low dead-volume microplate was sealed with sealing film and incubated in the incubator at 23°C for 15 minutes. • 4) The substrate cAMP was diluted to the desired concentration using 1× reaction buffer, and 5 µL of the diluted solution was transferred to the assay plate. After centrifugation, the plate was sealed again and incubated in the incubator at 23°C for 60 minutes (PDE3A) or 10 minutes (PDE4B1). • 5) Then, 5 µL of Reagent I from the AMP-Glo™ Assay Kit was added to the assay plate. After centrifugation and sealing, the plate was incubated in the incubator at 23°C for 60 minutes. • 6) The detection solution was prepared according to the AMP-Glo™ Assay Kit instructions, and 10 µL of the detection solution was added to the assay plate. After centrifugation and sealing, the plate was incubated in the incubator at 23°C for 60 minutes. • 7) The readout was recorded using a multimode microplate reader. 4. […] 5.

In another data set the target is T2, PDE3A (Homo sapiens, UniProt Q14432).
T2 construct: purchased BPS
T2 sequence (Q14432 whole entry): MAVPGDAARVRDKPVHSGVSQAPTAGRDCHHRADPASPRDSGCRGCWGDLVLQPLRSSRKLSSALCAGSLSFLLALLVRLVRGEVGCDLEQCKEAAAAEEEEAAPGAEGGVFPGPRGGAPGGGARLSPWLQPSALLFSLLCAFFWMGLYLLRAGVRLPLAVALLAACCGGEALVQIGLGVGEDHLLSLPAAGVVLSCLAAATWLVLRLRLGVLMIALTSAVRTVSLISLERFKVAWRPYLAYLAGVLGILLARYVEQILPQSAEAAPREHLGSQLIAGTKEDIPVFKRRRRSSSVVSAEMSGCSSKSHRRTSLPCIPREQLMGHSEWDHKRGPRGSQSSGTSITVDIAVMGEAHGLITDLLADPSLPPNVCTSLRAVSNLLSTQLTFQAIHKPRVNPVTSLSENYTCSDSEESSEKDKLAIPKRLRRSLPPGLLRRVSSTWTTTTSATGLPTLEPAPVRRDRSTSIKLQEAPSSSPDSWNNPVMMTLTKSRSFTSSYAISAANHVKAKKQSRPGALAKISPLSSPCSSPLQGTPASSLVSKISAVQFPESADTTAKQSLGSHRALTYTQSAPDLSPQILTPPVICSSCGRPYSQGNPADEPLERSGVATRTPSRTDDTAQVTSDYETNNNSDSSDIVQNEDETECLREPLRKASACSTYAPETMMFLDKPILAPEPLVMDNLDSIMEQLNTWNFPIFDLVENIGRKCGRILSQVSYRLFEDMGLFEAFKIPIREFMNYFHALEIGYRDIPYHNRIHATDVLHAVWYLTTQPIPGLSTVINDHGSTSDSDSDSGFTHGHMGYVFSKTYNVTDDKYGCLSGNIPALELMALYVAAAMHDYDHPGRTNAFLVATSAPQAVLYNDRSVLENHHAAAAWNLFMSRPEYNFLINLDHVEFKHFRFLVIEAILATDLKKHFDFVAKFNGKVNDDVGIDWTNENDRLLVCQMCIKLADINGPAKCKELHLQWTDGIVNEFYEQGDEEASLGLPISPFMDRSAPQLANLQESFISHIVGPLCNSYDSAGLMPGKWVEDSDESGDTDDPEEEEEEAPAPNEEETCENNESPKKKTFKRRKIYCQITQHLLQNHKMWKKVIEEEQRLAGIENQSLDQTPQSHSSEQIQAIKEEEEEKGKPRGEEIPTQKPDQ
Description: In vitro inhibitory effect on PDE3A enzyme (AMP-Glo assay). Type of data set: biochemical. On the procedure: as §1, §2

The target in another data set is CYP2D6 (Homo sapiens, UniProt P10635). Description: In vitro CYP inhibition in human liver microsomes, CYP2D6.
Sequence of CYP2D6 (P10635 whole entry): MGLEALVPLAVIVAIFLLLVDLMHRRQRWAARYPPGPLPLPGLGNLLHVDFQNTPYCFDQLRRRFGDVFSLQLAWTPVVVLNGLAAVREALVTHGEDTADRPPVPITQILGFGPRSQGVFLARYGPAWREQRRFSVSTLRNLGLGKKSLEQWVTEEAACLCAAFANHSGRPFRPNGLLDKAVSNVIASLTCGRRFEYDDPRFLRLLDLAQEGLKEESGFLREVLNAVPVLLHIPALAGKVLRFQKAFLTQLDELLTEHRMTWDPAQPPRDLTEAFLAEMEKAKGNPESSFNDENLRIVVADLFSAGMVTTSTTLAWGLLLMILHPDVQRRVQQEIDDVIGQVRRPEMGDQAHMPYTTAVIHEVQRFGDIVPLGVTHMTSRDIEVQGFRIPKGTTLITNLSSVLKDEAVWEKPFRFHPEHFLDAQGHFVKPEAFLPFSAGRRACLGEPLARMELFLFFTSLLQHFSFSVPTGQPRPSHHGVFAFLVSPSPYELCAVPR
Where [1] appears, read: AMP-Glo Assay Kit, substrate cAMP, 23°C, 10 minutes, read-out: PDE4B1 (IC50).
Setting [2] is: AMP-Glo Assay Kit, substrate cAMP, 23°C, 60 minutes, read-out: PDE3A (IC50).

T1 sequence (Q07343 whole entry): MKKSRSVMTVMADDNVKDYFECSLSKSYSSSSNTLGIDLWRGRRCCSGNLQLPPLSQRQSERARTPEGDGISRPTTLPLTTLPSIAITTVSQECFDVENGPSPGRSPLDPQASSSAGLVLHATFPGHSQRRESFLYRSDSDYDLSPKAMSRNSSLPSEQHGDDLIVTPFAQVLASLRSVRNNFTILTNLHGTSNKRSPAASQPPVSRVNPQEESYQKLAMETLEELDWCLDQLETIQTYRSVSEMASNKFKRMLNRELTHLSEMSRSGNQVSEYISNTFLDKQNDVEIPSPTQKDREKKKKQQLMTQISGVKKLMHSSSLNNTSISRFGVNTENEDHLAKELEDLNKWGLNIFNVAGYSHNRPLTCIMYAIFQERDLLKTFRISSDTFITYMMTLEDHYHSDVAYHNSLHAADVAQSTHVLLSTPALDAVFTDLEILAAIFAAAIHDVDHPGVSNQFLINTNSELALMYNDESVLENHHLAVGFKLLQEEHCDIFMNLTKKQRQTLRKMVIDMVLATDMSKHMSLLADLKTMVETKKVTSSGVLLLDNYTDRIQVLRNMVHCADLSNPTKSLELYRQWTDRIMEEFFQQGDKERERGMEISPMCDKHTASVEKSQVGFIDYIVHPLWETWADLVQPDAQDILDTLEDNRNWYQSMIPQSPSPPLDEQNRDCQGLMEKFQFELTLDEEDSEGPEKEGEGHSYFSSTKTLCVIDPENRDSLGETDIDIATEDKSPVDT
Sequence of CYP3A-M (P08684 2-503): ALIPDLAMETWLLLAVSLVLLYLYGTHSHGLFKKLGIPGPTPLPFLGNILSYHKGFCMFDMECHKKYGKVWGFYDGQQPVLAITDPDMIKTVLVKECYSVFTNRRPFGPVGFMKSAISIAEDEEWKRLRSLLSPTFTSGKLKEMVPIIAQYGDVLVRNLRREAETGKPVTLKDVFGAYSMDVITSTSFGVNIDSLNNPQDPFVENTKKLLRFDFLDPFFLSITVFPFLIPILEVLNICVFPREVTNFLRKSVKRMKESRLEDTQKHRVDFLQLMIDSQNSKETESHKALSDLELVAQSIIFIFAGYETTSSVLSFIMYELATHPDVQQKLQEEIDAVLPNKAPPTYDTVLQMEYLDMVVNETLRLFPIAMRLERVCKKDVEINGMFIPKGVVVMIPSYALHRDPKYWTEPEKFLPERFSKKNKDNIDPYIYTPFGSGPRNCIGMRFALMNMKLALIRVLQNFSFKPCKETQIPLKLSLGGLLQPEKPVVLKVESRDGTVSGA
Description for CYP1A2: (§3) 1.1 Working solutions (100×) of sample compounds and standard inhibitors were prepared.
(§4) 1.2 Microsomes were removed from a -80°C refrigerator, thawed on ice, labeled with the date, and stored in the refrigerator immediately after use.
(§5) 1.3 20 µL of substrate solution was added to the corresponding wells, while 20 µL of PB (phosphate buffer) was added to the blank wells.
(§6) 1.4 2 µL of sample compound solution and positive control working solution were added to the appropriate wells, while 2 µL of solvent was added to inhibitor-free wells and blank wells.
(§7) 1.5 HLM (human liver microsome) working solution was prepared.
(§8) 1.6 158 µL of HLM working solution was added to all wells of the plate.
(§9) 1.7 The plate was pre-incubated in a 37°C water bath for approximately 10 minutes.
(§10) 1.8 NADPH (nicotinamide adenosine denucleotide hydro-phosphoric acid, i.e. reduced form coenzyme II) cofactor solution was prepared.
(§11) 1.9 20 µL of NADPH cofactor solution was added to all incubation wells.
(§12) 1.10 The solution was mixed and the plate was placed in 37°C water bath to incubate CYP for 10 minutes.
(§13) 1.11 At designated time points, the reaction was terminated by adding 400 µL of cold stopping solution.
(§14) 1.13 200 µL of the supernatant was transferred into 100 µL of HPLC-grade water and vortexed for 10 minutes.
(§15) 1.14 Samples were subjected to LC/MS/MS analysis.
(§16) Concentration-inhibition percentage curves of the control compound and test compounds were plotted using XL Fit or SigmaPlot, followed by nonlinear regression analysis.
(§17) IC50 values were determined using a 3 or 4 parameter logistic equation.
Description for CYP2C19: as §3, §4, §5, §6, §7, §8, §9, §10, §11, §12, §13, §14, §15, §16, §17
Description for CYP2C9: as §3, §4, §5, §6, §7, §8, §9, §10, §11, §12, §13, §14, §15, §16, §17
Description for CYP2D6: as §3, §4, §5, §6, §7, §8, §9, §10, §11, §12, §13, §14, §15, §16, §17
Description for CYP3A-M: as §3, §4, §5, §6, §7, §8, §9, §10, §11, §12, §16, §17

A word on the IC50: it is the concentration that inhibits the measured activity by half. On CYP3A-M (human liver microsomes), `COc1cc2c(cc1OC)-c1c/c(=N\c3c(C)cc(C)cc3C)n(CCNC(N)=O)c(=O)n1CC2` [Ensifentrine, reference compound] displayed an IC50 at 10 min of 8600 nM. For the same compound, the IC50 on CYP2C9 was 3520 nM; against CYP2C19 it was 23200 nM; at CYP1A2, greater than 50000 nM; on PDE4B1 (setting [1]), 102 nM; on PDE3A (setting [2]) it was 0.17 nM; against CYP2D6, 41500 nM.
On CYP3A-M (microsomes), `CCOc1cc2c(cc1OC)-c1cc(N(CCCO)c3c(C)cc(C)cc3C)nc(=O)n1CC2` [Compound 60] returned an IC50 at 10 min greater than 50000 nM. Moreover, the IC50 on CYP2C9 is 3870 nM; at CYP2C19 it was 42100 nM; on CYP1A2, greater than 50000 nM; at PDE4B1, 6.3 nM; on PDE3A, 0.0033 nM; on CYP2D6, greater than 50000 nM.
The compound `CCOc1cc2c(cc1OC)-c1cc(N(CCNC(N)=O)c3c(C)cc(C)cc3C)nc(=O)n1CC2` [Compound 84] showed an IC50 at 10 min against CYP3A-M (human liver microsomes) greater than 50000 nM. The IC50 on CYP2C9 is 4520 nM; against CYP2C19, greater than 50000 nM; at CYP1A2, greater than 50000 nM; on PDE4B1 (setting [1]) it was 7.5 nM; on PDE3A (setting [2]) it was 0.008 nM; on CYP2D6 it was greater than 50000 nM.
On to `CCOc1cc2c(cc1OC)-c1cc(=Nc3c(C)cc(C)cc3C)n(CCCN)c(=O)n1CC2` [Compound 87], for which the IC50 at PDE4B1 turned out to be 359 nM; against PDE3A, 3.02 nM.
At CYP3A-M (microsomes), `CCOc1cc2c(cc1OC)-c1cc(N(CCO)c3c(C)cc(C)cc3C)nc(=O)n1CC2` [Compound 75] displayed an IC50 at 10 min of 33200 nM. For the same compound, the IC50 was 8310 nM at CYP2C9, 30600 nM against CYP2C19, greater than 50000 nM against CYP1A2 and greater than 50000 nM at CYP2D6.
In the case of `COc1cc2c(cc1OCC(F)(F)F)CCn1c-2cc(=Nc2c(C)cc(C)cc2C)n(CCNC(=O)c2c(O)nnn2C)c1=O` [Compound 26], the IC50 at PDE4B1 (setting [1]) was 419 nM; on PDE3A (setting [2]), 0.34 nM.
`CCOc1cc2c(cc1OC)-c1cc(N(CCN3CCN(C(C)=O)CC3)c3c(C)cc(C)cc3C)nc(=O)n1CC2` [Compound 71]: the IC50 came out at 13.2 nM at PDE4B1 (setting [1]) and 0.057 nM at PDE3A (setting [2]).
In the same order, the values of `CCOc1cc2c(cc1OC)-c1cc(N(CCNC(=O)c3c[nH]nn3)c3c(C)cc(C)cc3C)nc(=O)n1CC2` [Compound 64] are 8.4 nM and 0.019 nM.
Take `COc1cc2c(cc1OC)-c1cc(=Nc3c(C)cc(C)cc3C)n(CCNC(=O)N3CCn4c(nnc4C(F)(F)F)C3)c(=O)n1CC2` [Compound 33]: the results for the IC50 at PDE4B1 and against PDE3A were 3760 nM and 4.78 nM, respectively.
Taken in the same sequence, the figures for `COc1cc2c(cc1OC)-c1cc(=Nc3c(C)cc(C)cc3C)n(CCNC(=O)c3cccn(CC(F)(F)F)c3=O)c(=O)n1CC2` [Compound 55] were 262 nM and 0.49 nM.
Turning to `CCOc1cc2c(cc1OC)-c1cc(N(CCCN)c3c(C)cc(C)cc3C)nc(=O)n1CC2` [Compound 81], the IC50 was 64.4 nM on PDE4B1 (setting [1]) and 0.33 nM at PDE3A (setting [2]).
Take `CCOc1cc2c(cc1OC)-c1cc(N(CCNC(=O)c3c(O)nnn3C)c3c(C)cc(C)cc3C)nc(=O)n1CC2` [Compound 43]: the IC50 at PDE4B1 stood at 13.6 nM; at PDE3A, 0.19 nM.
As to `COc1cc2c(cc1OC)-c1cc(N(CCC(C)(C)O)c3c(C)cc(C)cc3C)nc(=O)n1CC2` [Compound 18], the IC50 was found to be 213 nM on PDE4B1 (setting [1]) and 0.088 nM on PDE3A (setting [2]).
`COc1cc2c(cc1OC)-c1cc(=Nc3c(C)cc(C)cc3C)n(CCNC(=O)c3cccn(C4CC4)c3=O)c(=O)n1CC2` [Compound 41]: the values for the IC50 on PDE4B1 and against PDE3A were 250 nM and 1.14 nM, respectively.
Regarding `COc1cc2c(cc1OC)-c1cc(=Nc3c(C)cc(C)cc3C)n(CCNC(N)=O)c(=O)n1CCS2` [Compound 20], the IC50 was 251 nM at PDE4B1 and 24.9 nM against PDE3A.
Taken in the same sequence, the figures for `COc1cc2c(cc1OC1CCOC1)CCn1c-2cc(=Nc2c(C)cc(C)cc2C)n(CCNC(N)=O)c1=O` (stereo not shown) [Compound 25] were 381 nM and 4.47 nM.
Consider `CCOc1cc2c(cc1OC)-c1cc(=Nc3c(C)cc(C)cc3C)n(CCC(C)(C)O)c(=O)n1CC2` [Compound 54], for which the half-inhibitory concentration (IC50) on PDE4B1 (setting [1]) turned out to be 697 nM; at PDE3A (setting [2]), 0.43 nM.
In the case of `COc1cc2c(cc1OC)-c1cc(=Nc3c(C)cc(C)cc3F)n(CCNC(N)=O)c(=O)n1CC2` [Compound 66], the IC50 is 268 nM against PDE4B1 and 0.64 nM on PDE3A.
Take `COc1cc2c(cc1OC)-c1cc(=Nc3c(C)cc(C)cc3C)n(CCC(C)(C)O)c(=O)n1CC2` [Compound 17]: the results for the IC50 on PDE4B1 (setting [1]) and on PDE3A (setting [2]) were 5000 nM and 0.54 nM, respectively.
Compound `CCOc1cc2c(cc1OC)-c1cc(N(CCNC(=O)NOC)c3c(C)cc(C)cc3C)nc(=O)n1CC2` [Compound 86] yielded an IC50 at 10 min at CYP3A-M (human liver microsomes) of 1630 nM. Moreover, the IC50 on CYP2C9 is 3130 nM; on CYP2C19, 29100 nM; against CYP1A2, greater than 50000 nM; at PDE4B1 (setting [1]), 7.9 nM; on PDE3A (setting [2]) it was 0.034 nM; against CYP2D6 it was 29700 nM.
As for `CCOc1cc2c(cc1OC)-c1cc(N(CCNC(=O)c3ccccn3)c3c(C)cc(C)cc3C)nc(=O)n1CC2` [Compound 63], the IC50 at PDE4B1 (setting [1]) is 1.2 nM; at PDE3A (setting [2]), 0.042 nM.
Turning to `CCOc1cc2c(cc1OC)-c1cc(=Nc3c(C)cc(C)cc3C)n(CCNC(=O)c3c(O)nnn3C)c(=O)n1CC2` [Compound 23], the IC50 at PDE4B1 was determined as 12.9 nM; on PDE3A, 0.0058 nM.
With `COc1cc2c(cc1OC)-c1cc(=Nc3c(C)cc(C)cc3C)n(CCNC(=O)NCCN3CCOCC3)c(=O)n1CC2` [Compound 38], the figures for the IC50 against PDE4B1 and against PDE3A were 1890 nM and 1.61 nM, respectively.
For `CCOc1cc2c(cc1OC)-c1cc(N(CCNC(=O)N3CCOCC3CO)c3c(C)cc(C)cc3C)nc(=O)n1CC2` (stereo not shown) [Compound 83], the figures for the IC50 on PDE4B1 (setting [1]) and at PDE3A (setting [2]) were 37.3 nM and 0.043 nM, respectively.
For `CONC(=O)NCCn1c(=Nc2c(C)cc(C)cc2C)cc2n(c1=O)CCc1cc(OC)c(OC)cc1-2` [Compound 8], the IC50 against PDE4B1 is 377 nM; against PDE3A it was 0.86 nM.
As to `COc1cc2c(cc1OC)-c1cc(N(c3c(C)cc(C)cc3C)C3CN(C(=O)c4ncon4)C3)nc(=O)n1CC2` [Compound 51], the IC50 on PDE4B1 (setting [1]) turned out to be 1450 nM; at PDE3A (setting [2]), 89.5 nM.
As for `COCCOc1cc2c(cc1OC)-c1cc(=Nc3c(C)cc(C)cc3C)n(CCNC(=O)c3c(O)nnn3C)c(=O)n1CC2` [Compound 28], the figures for the IC50 against PDE4B1 and against PDE3A were 478 nM and 0.46 nM, respectively.
Taken in the same sequence, the figures for `CCOc1cc2c(cc1OC)-c1cc(N(CC(=O)O)c3c(C)cc(C)cc3C)nc(=O)n1CC2` [Compound 76] were 172 nM and 0.1 nM.
With `CCOc1cc2c(cc1OC)-c1cc(N(CCN3CC(F)C3)c3c(C)cc(C)cc3C)nc(=O)n1CC2` [Compound 74], the IC50 at PDE4B1 (setting [1]) was determined as 8.1 nM; at PDE3A (setting [2]) it was 0.05 nM.
Take `COc1cc2c(cc1OC)-c1cc(=Nc3c(C)cc(C)cc3C)n(CCNC(=O)OCC(O)CCO)c(=O)n1CC2` (stereo not shown) [Compound 69]: the IC50 amounted to 6750 nM against PDE4B1 and 1.91 nM at PDE3A.
Take `COc1cc2c(cc1OC)-c1cc(=Nc3c(C)cc(C)cc3C)n(CCNC(=O)N3CCOCC3CO)c(=O)n1CC2` (stereo not shown) [Compound 70]: the IC50 stood at 2830 nM at PDE4B1 and 1.24 nM against PDE3A.
In the same order, the values of `COc1cc2c(cc1OC)-c1cc(N(CCNC(N)=O)c3c(C)cc(C)cc3C)nc(=O)n1CC2` [Compound 45] are 100 nM and 0.032 nM.
Take `CCOc1cc2c(cc1OC)-c1cc(=Nc3c(C)cc(C)cc3C)n(CCNC(=O)c3cccn(C)c3=O)c(=O)n1CC2` [Compound 52]: the values for the IC50 against PDE4B1 and on PDE3A were 0.89 nM and 0.37 nM, respectively.
In the same order, the values of `COc1cc2c(cc1OC)-c1cc(=Nc3c(C)cc(C)cc3C)n(CCNC(N)=O)c(=O)n1CCO2` [Compound 22] are 728 nM and 3.3 nM.
Take `CCOc1cc2c(cc1OC)-c1cc(N(CCNC(=O)c3nnc(C)o3)c3c(C)cc(C)cc3C)nc(=O)n1CC2` [Compound 65]: the values for the IC50 on PDE4B1 (setting [1]) and at PDE3A (setting [2]) were 10.8 nM and 0.036 nM, respectively.
With `COc1cc2c(cc1OC)-c1cc(N(CCNC(=O)c3cccn(C)c3=O)c3c(C)cc(C)cc3C)nc(=O)n1CC2` [Compound 46], the IC50 was determined as 17.8 nM against PDE4B1 and 0.082 nM against PDE3A.
For the compound `CCOc1cc2c(cc1OC)CCn1c-2cc(=Nc2c(C)cc(C)cc2C)n(CCNC(N)=O)c1=O` [Compound 12], the results for the IC50 on PDE4B1 and against PDE3A were 337 nM and 7.45 nM, respectively.
